Laboratory results taken from patent publication US8192962B2, “Processes for detecting toxic substances” (Daikin Industries, Ltd., priority 2001, dated 2012).

System: Stress protein genes
Assay: DNA chip mRNA expression in yeast, stress protein genes (Table 6)
Format: cell-based, Saccharomyces cerevisiae S288C
Summary of the method: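 Measured as treated-to-untreated fluorescence ratio on a full-genome yeast DNA chip. Cells (S288C, YPD, 25° C.) were exposed in log phase for two hours to one chemical, dosed to curb growth without killing.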

SMILES: C=CC=O [(14), acrolein]
- The level of expressed mRNA in the presence of chemical substance/The level of expressed mRNA in the absence of chemical substance (yeast gene YAL005C): 0.4
- The level of expressed mRNA in the presence of chemical substance/The level of expressed mRNA in the absence of chemical substance (yeast gene YAL015C): 1.6
- The level of expressed mRNA in the presence of chemical substance/The level of expressed mRNA in the absence of chemical substance (yeast gene YBL075C): 1.1
- The level of expressed mRNA in the presence of chemical substance/The level of expressed mRNA in the absence of chemical substance (yeast gene YBL093C): 1.0
- The level of expressed mRNA in the presence of chemical substance/The level of expressed mRNA in the absence of chemical substance (yeast gene YBR044C): 0.9
- The level of expressed mRNA in the presence of chemical substance/The level of expressed mRNA in the absence of chemical substance (yeast gene YBR054W): 1.0
- The level of expressed mRNA in the presence of chemical substance/The level of expressed mRNA in the absence of chemical substance (yeast gene YBR067C): 0.7
- The level of expressed mRNA in the presence of chemical substance/The level of expressed mRNA in the absence of chemical substance (yeast gene YBR072W): 5.8
- The level of expressed mRNA in the presence of chemical substance/The level of expressed mRNA in the absence of chemical substance (yeast gene YBR126C): 0.7
- The level of expressed mRNA in the presence of chemical substance/The level of expressed mRNA in the absence of chemical substance (yeast gene YBR169C): 1.1
- The level of expressed mRNA in the presence of chemical substance/The level of expressed mRNA in the absence of chemical substance (yeast gene YCL035C): 2.5
- The level of expressed mRNA in the presence of chemical substance/The level of expressed mRNA in the absence of chemical substance (yeast gene YCR021C): 1.6
- The level of expressed mRNA in the presence of chemical substance/The level of expressed mRNA in the absence of chemical substance (yeast gene YCR060W): 1.7
- The level of expressed mRNA in the presence of chemical substance/The level of expressed mRNA in the absence of chemical substance (yeast gene YCR083W): 2.4
- The level of expressed mRNA in the presence of chemical substance/The level of expressed mRNA in the absence of chemical substance (yeast gene YDL022W): 0.8
- The level of expressed mRNA in the presence of chemical substance/The level of expressed mRNA in the absence of chemical substance (yeast gene YDL025C): 1.7
- The level of expressed mRNA in the presence of chemical substance/The level of expressed mRNA in the absence of chemical substance (yeast gene YDR033W): 1.0
- The level of expressed mRNA in the presence of chemical substance/The level of expressed mRNA in the absence of chemical substance (yeast gene YDR077W): 0.3
- The level of expressed mRNA in the presence of chemical substance/The level of expressed mRNA in the absence of chemical substance (yeast gene YDR098C): 1.5
- The level of expressed mRNA in the presence of chemical substance/The level of expressed mRNA in the absence of chemical substance (yeast gene YDR155C): 1.0
- The level of expressed mRNA in the presence of chemical substance/The level of expressed mRNA in the absence of chemical substance (yeast gene YDR258C): 1.5
- The level of expressed mRNA in the presence of chemical substance/The level of expressed mRNA in the absence of chemical substance (yeast gene YDR293C): 0.8
- The level of expressed mRNA in the presence of chemical substance/The level of expressed mRNA in the absence of chemical substance (yeast gene YDR436W): 1.2
- The level of expressed mRNA in the presence of chemical substance/The level of expressed mRNA in the absence of chemical substance (yeast gene YDR513W): 2.0
- The level of expressed mRNA in the presence of chemical substance/The level of expressed mRNA in the absence of chemical substance (yeast gene YDR519W): 1.3
- The level of expressed mRNA in the presence of chemical substance/The level of expressed mRNA in the absence of chemical substance (yeast gene YEL030W): 0.7
- The level of expressed mRNA in the presence of chemical substance/The level of expressed mRNA in the absence of chemical substance (yeast gene YEL039C): 1.4
- The level of expressed mRNA in the presence of chemical substance/The level of expressed mRNA in the absence of chemical substance (yeast gene YER042W): 5.2
- The level of expressed mRNA in the presence of chemical substance/The level of expressed mRNA in the absence of chemical substance (yeast gene YER057C): 1.4
- The level of expressed mRNA in the presence of chemical substance/The level of expressed mRNA in the absence of chemical substance (yeast gene YER103W): 0.9
- The level of expressed mRNA in the presence of chemical substance/The level of expressed mRNA in the absence of chemical substance (yeast gene YER125W): 0.7
- The level of expressed mRNA in the presence of chemical substance/The level of expressed mRNA in the absence of chemical substance (yeast gene YFL014W): 7.3
- The level of expressed mRNA in the presence of chemical substance/The level of expressed mRNA in the absence of chemical substance (yeast gene YFL016C): 0.8
- The level of expressed mRNA in the presence of chemical substance/The level of expressed mRNA in the absence of chemical substance (yeast gene YFL020C): 1.0
- The level of expressed mRNA in the presence of chemical substance/The level of expressed mRNA in the absence of chemical substance (yeast gene YFR052W): 3.3
- The level of expressed mRNA in the presence of chemical substance/The level of expressed mRNA in the absence of chemical substance (yeast gene YGL073W): 1.2
- The level of expressed mRNA in the presence of chemical substance/The level of expressed mRNA in the absence of chemical substance (yeast gene YGL115W): 1.2
- The level of expressed mRNA in the presence of chemical substance/The level of expressed mRNA in the absence of chemical substance (yeast gene YGL181W): 1.0
- The level of expressed mRNA in the presence of chemical substance/The level of expressed mRNA in the absence of chemical substance (yeast gene YGR088W): 1.3
- The level of expressed mRNA in the presence of chemical substance/The level of expressed mRNA in the absence of chemical substance (yeast gene YHL028W): 1.3
- The level of expressed mRNA in the presence of chemical substance/The level of expressed mRNA in the absence of chemical substance (yeast gene YHL046C): 1.4
- The level of expressed mRNA in the presence of chemical substance/The level of expressed mRNA in the absence of chemical substance (yeast gene YHR030C): 1.1
- The level of expressed mRNA in the presence of chemical substance/The level of expressed mRNA in the absence of chemical substance (yeast gene YHR057C): 1.9
- The level of expressed mRNA in the presence of chemical substance/The level of expressed mRNA in the absence of chemical substance (yeast gene YHR104W): 1.5
- The level of expressed mRNA in the presence of chemical substance/The level of expressed mRNA in the absence of chemical substance (yeast gene YIL011W): 0.5
- The level of expressed mRNA in the presence of chemical substance/The level of expressed mRNA in the absence of chemical substance (yeast gene YIL033C): 0.7
- The level of expressed mRNA in the presence of chemical substance/The level of expressed mRNA in the absence of chemical substance (yeast gene YIR037W): 2.3
- The level of expressed mRNA in the presence of chemical substance/The level of expressed mRNA in the absence of chemical substance (yeast gene YIR038C): 2.5
- The level of expressed mRNA in the presence of chemical substance/The level of expressed mRNA in the absence of chemical substance (yeast gene YJL128C): 0.8
- The level of expressed mRNA in the presence of chemical substance/The level of expressed mRNA in the absence of chemical substance (yeast gene YJL158C): 0.5
- The level of expressed mRNA in the presence of chemical substance/The level of expressed mRNA in the absence of chemical substance (yeast gene YJL159W): 0.6
- The level of expressed mRNA in the presence of chemical substance/The level of expressed mRNA in the absence of chemical substance (yeast gene YJL165C): 0.9
- The level of expressed mRNA in the presence of chemical substance/The level of expressed mRNA in the absence of chemical substance (yeast gene YJR045C): 0.5
- The level of expressed mRNA in the presence of chemical substance/The level of expressed mRNA in the absence of chemical substance (yeast gene YJR090C): 1.0
- The level of expressed mRNA in the presence of chemical substance/The level of expressed mRNA in the absence of chemical substance (yeast gene YKL161C): 1.4
- The level of expressed mRNA in the presence of chemical substance/The level of expressed mRNA in the absence of chemical substance (yeast gene YKL163W): 0.5
- The level of expressed mRNA in the presence of chemical substance/The level of expressed mRNA in the absence of chemical substance (yeast gene YKL164C): 0.3
- The level of expressed mRNA in the presence of chemical substance/The level of expressed mRNA in the absence of chemical substance (yeast gene YKL210W): 0.8
- The level of expressed mRNA in the presence of chemical substance/The level of expressed mRNA in the absence of chemical substance (yeast gene YKR053C): 1.3
- The level of expressed mRNA in the presence of chemical substance/The level of expressed mRNA in the absence of chemical substance (yeast gene YLL024C): 0.4
- The level of expressed mRNA in the presence of chemical substance/The level of expressed mRNA in the absence of chemical substance (yeast gene YLL026W): 0.8
- The level of expressed mRNA in the presence of chemical substance/The level of expressed mRNA in the absence of chemical substance (yeast gene YLL039C): 1.4
- The level of expressed mRNA in the presence of chemical substance/The level of expressed mRNA in the absence of chemical substance (yeast gene YLL060C): 10.6
- The level of expressed mRNA in the presence of chemical substance/The level of expressed mRNA in the absence of chemical substance (yeast gene YLR006C): 1.0
- The level of expressed mRNA in the presence of chemical substance/The level of expressed mRNA in the absence of chemical substance (yeast gene YLR109W): 2.3
- The level of expressed mRNA in the presence of chemical substance/The level of expressed mRNA in the absence of chemical substance (yeast gene YLR259C): 0.8
- The level of expressed mRNA in the presence of chemical substance/The level of expressed mRNA in the absence of chemical substance (yeast gene YML007W): 1.2
- The level of expressed mRNA in the presence of chemical substance/The level of expressed mRNA in the absence of chemical substance (yeast gene YML070W): 1.3
- The level of expressed mRNA in the presence of chemical substance/The level of expressed mRNA in the absence of chemical substance (yeast gene YMR021C): 1.3
- The level of expressed mRNA in the presence of chemical substance/The level of expressed mRNA in the absence of chemical substance (yeast gene YMR173W): 2.3
- The level of expressed mRNA in the presence of chemical substance/The level of expressed mRNA in the absence of chemical substance (yeast gene YMR186W): 0.6
- The level of expressed mRNA in the presence of chemical substance/The level of expressed mRNA in the absence of chemical substance (yeast gene YNL064C): 0.8
- The level of expressed mRNA in the presence of chemical substance/The level of expressed mRNA in the absence of chemical substance (yeast gene YNL160W): 1.3
- The level of expressed mRNA in the presence of chemical substance/The level of expressed mRNA in the absence of chemical substance (yeast gene YNL241C): 1.1
- The level of expressed mRNA in the presence of chemical substance/The level of expressed mRNA in the absence of chemical substance (yeast gene YNR076W): 0.8
- The level of expressed mRNA in the presence of chemical substance/The level of expressed mRNA in the absence of chemical substance (yeast gene YOL064C): 0.9
- The level of expressed mRNA in the presence of chemical substance/The level of expressed mRNA in the absence of chemical substance (yeast gene YOL161C): 0.9
- The level of expressed mRNA in the presence of chemical substance/The level of expressed mRNA in the absence of chemical substance (yeast gene YOR008C): 0.9
- The level of expressed mRNA in the presence of chemical substance/The level of expressed mRNA in the absence of chemical substance (yeast gene YOR009W): 0.7
- The level of expressed mRNA in the presence of chemical substance/The level of expressed mRNA in the absence of chemical substance (yeast gene YOR010C): 0.4
- The level of expressed mRNA in the presence of chemical substance/The level of expressed mRNA in the absence of chemical substance (yeast gene YOR027W): 0.8
- The level of expressed mRNA in the presence of chemical substance/The level of expressed mRNA in the absence of chemical substance (yeast gene YOR208W): 1.3
- The level of expressed mRNA in the presence of chemical substance/The level of expressed mRNA in the absence of chemical substance (yeast gene YPL059W): 1.3
- The level of expressed mRNA in the presence of chemical substance/The level of expressed mRNA in the absence of chemical substance (yeast gene YPL106C): 0.9
- The level of expressed mRNA in the presence of chemical substance/The level of expressed mRNA in the absence of chemical substance (yeast gene YPL140C): 1.1
- The level of expressed mRNA in the presence of chemical substance/The level of expressed mRNA in the absence of chemical substance (yeast gene YPL194W): 1.1
- The level of expressed mRNA in the presence of chemical substance/The level of expressed mRNA in the absence of chemical substance (yeast gene YPL223C): 2.5
- The level of expressed mRNA in the presence of chemical substance/The level of expressed mRNA in the absence of chemical substance (yeast gene YPL240C): 0.7
- The level of expressed mRNA in the presence of chemical substance/The level of expressed mRNA in the absence of chemical substance (yeast gene YPR005C): 1.3
- The level of expressed mRNA in the presence of chemical substance/The level of expressed mRNA in the absence of chemical substance (yeast gene YPR026W): 1.5
